The test system of the test is severe pain in the neck and shoulders. Nature of the test: Clinical testing: severe pain in the neck and shoulders after a car accident. Type of test: in vivo, human. The settings on record: person; had not slept continuously any night since the accident. The source says:
A person was involved in a car accident seven years earlier and had developed severe pain in the neck and shoulders. The patient had used non-steroidal anti-inflammatory drugs for a long time without significant effect. They had not slept continuously any night since the accident.
The patient tried the composition of Example 19 by administering topically to the areas of pain. They claimed a pain relieving effect after one minute and had no or very little pain for the following 2 to 3 days. After administration of the composition of Example 13 they were able to sleep for about 10 hours each of the next two nights.

As for `CNCC(O)C(O)C(O)C(O)CO.CNCC(O)C(O)C(O)C(O)CO.O=C([O-])CN(CCN(CC(=O)O)CC(=O)O)CC(=O)[O-].[Sr+2]` [Example 13, SrEDTA Dimeglumine Salt], the “sleep each of the next two nights” value was “about 10 hours”.
